Literature values, collected in article PMC7395068, “The evolution of strategies to minimise the risk of human drug-induced liver injury (DILI) in drug discovery and development” (Archives of Toxicology, 2020).
Like-named read-outs stand apart in the source and are kept apart here.

Tests used:
[1] = tested on: isolated mouse liver mitochondria; conditions: In vitro Assay; ref Porceddu 2012; cited from earlier work
[2] = cited from earlier work
[3] = cited from earlier work; remark: listed apart in the source
[4] = tested on: primary human hepatocytes, NIH3T3 fibroblasts, BSEP, CYP3A4; conditions: cited from earlier work
[5] = tested on: HepG2 cells; conditions: In vitro Assay; ref O'Brien 2006; cited from earlier work
[6] = tested on: THLE or HepG2 cells, isolated mitochondria, BSEP; conditions: In vitro Assay; ref Aleo 2019; cited from earlier work
[7] = tested on: human hepatocytes; conditions: In vitro Assay; ref Xu 2008; cited from earlier work
[8] = In vitro Assay, ref Schadt 2015

| Compound | in vitro data EC2<=1x Cmax [1] | in vitro data EC20<=2uM [1] | In vivo DILI ([2]; […]) | In vivo DILI ([2]; ref O'Brien 2006) | In vivo DILI ([2]; ref Porceddu 2012) | In vivo DILI ([2]; ref Schadt 2015) | DILI +VE (5-8), DILI -VE (-4) ([3]; ref Chen 2016) | DILI severity category ([3]; ref Chen 2016) | Structural based (HCI) [5] | Partition Hybrid HRM Score [6] | Ro2 Hybrid HRM Score [6] | In vivo DILI ([2]; ref Aleo 2019) | In vivo DILI ([2]; ref Xu 2008) | Structural based (HCI) [7] | other results |
| --- | --- | --- | --- | --- | --- | --- | --- | --- | --- | --- | --- | --- | --- | --- | --- |
| COc1cccc2c1C(=O)c1c(O)c3c(c(O)c1C2=O)C[C@@](O)(C(=O)CO)C[C@@H]3O[C@H]1C[C@H](N)[C@H](O)[C@H](C)O1 [doxorubicin] | +VE | +VE | +VE | +VE | +VE | -VE | +VE | vLess-DILI-Concern | +VE | – | – | – | – | – | Cellular toxicity (3T3 cells) [4, 8]: +VE; GSH adduct HML [4, 8]: -VE; Hepatocyte cellular toxicity [4, 8]: -VE; MitoTox 3T3 [4, 8]: -VE; TDI CYP3A4 [4, 8]: -VE; hBSEP inhibition [4, 8]: -VE |
| CC[C@H](C)C(=O)O[C@H]1C[C@H](O)C=C2C=C[C@H](C)[C@H](CC[C@@H](O)C[C@@H](O)CC(=O)O)[C@H]21 [pravastatin] | -VE | -VE | -VE | +VE | +VE | – | +VE | vLess-DILI-Concern | -VE | +VE | -VE | +VE | – | – | – |
| CCc1nc(N)nc(N)c1-c1ccc(Cl)cc1 [pyrimethamine] | – | – | – | +VE | – | -VE | +VE | vLess-DILI-Concern | +VE | – | – | – | +VE | +VE | Cellular toxicity (3T3 cells) [4]: -VE; Combined Assay [4]: -VE; GSH adduct HML [4]: -VE; Hepatocyte cellular toxicity [4]: -VE; MitoTox 3T3 [4]: -VE; TDI CYP3A4 [4]: -VE; hBSEP inhibition [4]: -VE |
| COc1cc(C(=O)NS(=O)(=O)c2ccccc2C)ccc1Cc1cn(C)c2ccc(NC(=O)OC3CCCC3)cc12 [zafirlukast] | – | – | +VE | +VE | – | – | +VE | vMost-DILI-Concern | +VE | +VE | +VE | +VE | +VE | -VE | – |
| Nc1ccn([C@H]2CC[C@@H](CO)O2)c(=O)n1 [zalcitabine] | – | – | – | -VE | – | – | – | – | -VE | -VE | -VE | +VE | -VE | -VE | – |
| cyanocobalamin | – | – | – | -VE | – | – | – | – | -VE | -VE | -VE | -VE | -VE | -VE | DILI +VE (5-8), DILI -VE (-4) ([3]; in vivo): -VE; DILI severity category ([3]; in vivo): vNo-DILI-Concern |
